Experimental data as given in US9511058B2, “Methods for using carboxamide, sulfonamide and amine compounds” (Rigel Pharmaceuticals, Inc., priority 2010, dated 2016).
pEC50: −log10 of the molar value.

Target: AMPK
Assay: AMPK activation, enzyme-linked immunosorbent assay
Assay type: biochemical
Details: compounds of Table 1 (Table 6)
Description: Compounds of Table 1 were assayed for their ability to activate AMPK using an enzyme-linked immunosorbent assay.
Compounds of Table 2 were assayed for their ability to activate AMPK using an enzyme-linked immunosorbent assay.
Compounds of Table 3 were assayed for their ability to activate AMPK using an enzyme-linked immunosorbent assay.
Compounds of Table 4 were assayed for their ability to activate AMPK using an enzyme-linked immunosorbent assay.
Compounds of Table 5 were assayed for their ability to activate AMPK using an enzyme-linked immunosorbent assay.

Row | Compound | pEC50
1 | CC(C)(C)OC(=O)N1CCC(NC(=O)c2ccc(OC3CCN(c4ccc(C(F)(F)F)cc4)CC3)nc2)CC1 [1-9, tert-butyl 4-(6-(1-(4-(trifluoromethyl)phenyl)piperidin-4-yloxy)nicotinamido)piperidine-1-carboxylate] | 6.30 to 7.00
2 | O=C(NC1CCNCC1)c1cc2ccc(OC3CCN(c4ccc(C(F)(F)F)cc4)CC3)cc2s1 [1-141, N-(piperidin-4-yl)-6-(1-(4-(trifluoromethyl)phenyl)piperidin-4-yloxy)benzo[b]thiophene-2-carboxamide] | 6.30 to 7.00
3 | N#Cc1ccc(CN2CCC(NC(=O)c3cc4ccc(OC5CCN(c6ccc(C(F)(F)F)cc6)CC5)cc4s3)CC2)cc1 [1-144, N-(1-(4-cyanobenzyl)piperidin-4-yl)-6-(1-(4-(trifluoromethyl)phenyl)piperidin-4-yloxy)benzo[b]thiophene-2-carboxamide] | > 7.00
4 | CN(C(=O)c1cc2cc(OC3CCN(c4ccc(C(F)(F)F)cc4)CC3)ccc2o1)C1CCN(Cc2cccc(C#N)c2)CC1 [1-110, N-(1-(3-cyanobenzyl)piperidin-4-yl)-N-methyl-5-(1-(4-(trifluoromethyl)phenyl)piperidin-4-yloxy)benzofuran-2-carboxamide] | > 7.00
5 | O=C(NC1CN(Cc2ccncc2)C1)c1ccc(OC2CCN(c3ccc(C(F)(F)F)cc3)CC2)cn1 [1-42, N-(1-(pyridin-4-ylmethyl)azetidin-3-yl)-5-(1-(4-(trifluoromethyl)phenyl)piperidin-4-yloxy)picolinamide] | 5.30 to 6.00
6 | CC(C)(C)OC(=O)N1CCC(NS(=O)(=O)c2ccc(OC3CCN(c4ccc(C(F)(F)F)cc4)CC3)nc2)CC1 [1-54, tert-butyl 4-(6-(1-(4-(trifluoromethyl)phenyl)piperidin-4-yloxy)pyridine-3-sulfonamido)piperidine-1-carboxylate] | 5.30 to 6.00
7 | N#Cc1ccc(CN2CCC(NC(=O)c3ccc(OC4CCN(c5ccc(C(F)(F)F)cc5)CC4)nc3)CC2)cc1 [1-35, N-(1-(4-cyanobenzyl)piperidin-4-yl)-6-(1-(4-(trifluoromethyl)phenyl)piperidin-4-yloxy)nicotinamide] | 6.30 to 7.00
8 | COC(=O)c1ccc(CN2CCC(NC(=O)c3ccc(OC4CCN(c5ccc(C(F)(F)F)cc5)CC4)cn3)CC2)cc1 [1-8, methyl 4-((4-(5-(1-(4-(trifluoromethyl)phenyl)piperidin-4-yloxy)picolinamido)piperidin-1-yl)methyl)benzoate] | > 7.00
9 | CC(C)(C)OC(=O)N1CCC(NC(=O)c2cc3ccc(OC4CCN(c5ccc(C(F)(F)F)cc5)CC4)cc3o2)CC1 [1-82, tert-butyl 4-(6-(1-(4-(trifluoromethyl)phenyl)piperidin-4-yloxy)benzofuran-2-carboxamido)piperidine-1-carboxylate] | 6.30 to 7.00
10 | O=C(N[C@@H]1CCN(Cc2ccccn2)C1)c1cc2cc(OC3CCN(c4ccc(C(F)(F)F)cc4)CC3)ccc2o1 [1-124, (R)-N-(1-(pyridin-2-ylmethyl)pyrrolidin-3-yl)-5-(1-(4-(trifluoromethyl)phenyl)piperidin-4-yloxy)benzofuran-2-carboxamide] | 5.30 to 6.00
11 | N#Cc1ccc(CN2CC(NC(=O)c3ccc(OC4CCN(c5ccc(C(F)(F)F)cc5)CC4)cn3)C2)cc1 [1-41, N-(1-(4-cyanobenzyl)azetidin-3-yl)-5-(1-(4 (trifluoromethyl)phenyl)piperidin-4-yloxy)picolinamide] | 6.30 to 7.00

Same assay, conditions: compounds of Table 2 (Table 7)

Row | Compound | pEC50
12 | CC(C)(C)OC(=O)N1CCC(NC(=O)c2ccc3[nH]c4c(c3c2)CN(Cc2ccc(C(N)=O)cc2)CC4)CC1 [2-43, tert-butyl 4-(2-(4-carbamoylbenzyl)-2,3,4,5-tetrahydro-1H-pyrido[4,3-b]indole-8-carboxamido) piperidine-1-carboxylate] | < 4.00
13 | O=C(NC1CCN(C(=O)c2ccc(F)cc2)CC1)c1ccc2[nH]c3c(c2c1)CN(c1ccc(F)cc1)CC3 [2-39, N-(1-(4-fluorobenzoyl)piperidin-4-yl)-2-(4-fluorophenyl)-2,3,4,5-tetrahydro-1H-pyrido[4,3-b]indole-8-carboxamide] | 4.30 to 5.00
14 | N#Cc1ccc(CN2CCC(NC(=O)c3ccc4[nH]c5c(c4c3)CN(C(=O)OCc3ccccc3)CC5)CC2)cc1 [2-1, benzyl 8-(1-(4-cyanobenzyl)piperidin-4-ylcarbamoyl)-3,4-dihydro-1H-pyrido[4,3-b]indole-2(5H)-carboxylate] | 5.30 to 6.00

Same assay, conditions: compounds of Table 3 (Table 8)

Row | Compound | pEC50
15 | N#Cc1ccc(CN2CCC(NC(=O)c3cnc(OC4CCN(Cc5ccc(C(F)(F)F)cc5)CC4)s3)CC2)cc1 [3-25, N-(1-(4-cyanobenzyl)piperidin-4-yl)-2-(1-(4-(trifluoromethyl)benzyl)piperidin-4-yloxy)thiazole-5-carboxamide] | > 7.00
16 | O=C(NC1CCN(Cc2ccncc2)CC1)c1cnc(OC2CCN(c3ccc(C(F)(F)F)cc3)CC2)cn1 [3-21, N-(1-(pyridin-4-ylmethyl)piperidin-4-yl)-5-(1-(4-(trifluoromethyl)phenyl)piperidin-4-yloxy)pyrazine-2-carboxamide] | > 7.00
17 | O=C(NC1CCN(Cc2cccnc2)CC1)c1ccc2c(c1)CN(Cc1ccc(F)cc1)CC2 [3-35, 2-(4-fluorobenzyl)-N-(1-(pyridin-3-ylmethyl)piperidin-4-yl)-1,2,3,4-tetrahydroisoquinoline-7-carboxamide] | 5.00 to 6.00

Same assay, conditions: compounds of Table 5 (Table 10)

Row | Compound | pEC50
18 | COc1cc(C(=O)NC2CCN(Cc3ccccc3)CC2)ccc1OC1CCN(Cc2ccccc2)CC1 [5-2, N-(1-benzylpiperidin-4-yl)-4-(1-benzylpiperidin-4-yloxy)-3-methoxybenzamide] | > 6.00
19 | O=C(NC1CCN(Cc2ccncc2)CC1)c1cccc(OC2CCN(c3ccc(C(F)(F)F)cc3)CC2)c1 [5-87, N-(1-(pyridin-4-ylmethyl)piperidin-4-yl)-3-(1-(4-(trifluoromethyl)phenyl)piperidin-4-yloxy)benzamide] | > 6.00
20 | CC(C)(C)c1ccc(CN2CCC(Oc3ccc(C(=O)NC4CCN(Cc5ccccc5)CC4)cc3Cl)CC2)cc1 [5-16, N-(1-benzylpiperidin-4-yl)-4-(1-(4-tert-butylbenzyl)piperidin-4-yloxy)-3-chlorobenzamide] | > 6.00
21 | O=C(NC1CCN(Cc2ccccc2)CC1)c1ccc(OC2CCN(Cc3ccncc3)CC2)c(F)c1 [5-37, N-(1-benzylpiperidin-4-yl)-3-fluoro-4-(1-(pyridin-4-ylmethyl)piperidin-4-yloxy)benzamide] | > 6.00
22 | O=C(NC1CCN(Cc2ccccc2)CC1)c1ccc(OC2CCN(Cc3cccnc3)CC2)c(F)c1 [5-38, N-(1-benzylpiperidin-4-yl)-3-fluoro-4-(1-(pyridin-3-ylmethyl)piperidin-4-yloxy)benzamide] | 5.00 to 6.00
23 | O=C(NC1CCN(Cc2ccccc2)CC1)c1ccc(OC2CCN(Cc3ccc(C(F)(F)F)cc3)CC2)c(F)c1 [5-55, N-(1-benzylpiperidin-4-yl)-3-fluoro-4-(1-(4-(trifluoromethyl)benzyl)piperidin-4-yloxy)benzamide] | > 6.00
24 | CC(C)(C)c1ccc(CN2CCC(Oc3ccc(C(=O)NC4CCN(c5ccccc5)CC4)cc3F)CC2)cc1 [5-36, 4-(1-(4-tert-butylbenzyl)piperidin-4-yloxy)-3-fluoro-N-(1-phenylpiperidin-4-yl)benzamide] | > 6.00
25 | Cc1ccc(CN2CCC(Oc3ccc(C(=O)NC4CCN(Cc5ccccc5)CC4)cc3F)CC2)cc1 [5-42, N-(1-benzylpiperidin-4-yl)-3-fluoro-4-(1-(4-methylbenzyl)piperidin-4-yloxy)benzamide] | > 6.00
26 | N#Cc1ccc(N2CCC(Oc3ccc(C(=O)NC4CCN(Cc5ccncc5)CC4)cc3F)CC2)cc1 [5-44, 4-(1-(4-cyanophenyl)piperidin-4-yloxy)-3-fluoro-N-(1-(pyridin-4-ylmethyl)piperidin-4-yl)benzamide] | > 6.00
27 | O=C(NC1CCN(Cc2ccccn2)CC1)c1ccc(OC2CCN(c3ccc(C(F)(F)F)cc3)CC2)c(F)c1 [5-32, 3-fluoro-N-(1-(pyridin-2-ylmethyl)piperidin-4-yl)-4-(1-(4-(trifluoromethyl)phenyl)piperidin-4-yloxy)benzamide] | > 6.00
28 | N#Cc1ccc(CN2CCC(Oc3cccc(C(=O)NC4CCN(Cc5ccccc5)CC4)c3)CC2)cc1 [5-50, N-(1-benzylpiperidin-4-yl)-3-(1-(4-cyanobenzyl)piperidin-4-yloxy)benzamide] | 5.00 to 6.00
29 | N#Cc1ccc(CN2CCC(Oc3ccc(C(=O)NC4CCNCC4)cc3)CC2)cc1 [5-79, 4-(1-(4-cyanobenzyl)piperidin-4-yloxy)-N-(piperidin-4-yl)benzamide] | < 4.00
30 | O=C(O)c1ccc(CN2CCC(NC(=O)c3ccc(OC4CCN(c5ccc(C(F)(F)F)cc5)CC4)c(F)c3)CC2)cc1 [5-35, 4-((4-(3-fluoro-4-(1-(4-(trifluoromethyl)phenyl)piperidin-4-yloxy)benzamido)piperidin-1-yl)methyl)benzoic acid] | 5.00 to 6.00
31 | O=C(NC1CCN(Cc2ccccc2)CC1)c1cccc(OC2CCN(c3ccc(C(F)(F)F)cc3)CC2)c1 [5-46, N-(1-benzylpiperidin-4-yl)-3-(1-(4-(trifluoromethyl)phenyl)piperidin-4-yloxy)benzamide] | > 6.00
32 | CC(C)(C)C(=O)N1CCC(Oc2ccc(C(=O)NC3CCN(Cc4ccccc4)CC3)cc2Cl)CC1 [5-91, N-(1-benzylpiperidin-4-yl)-3-chloro-4-(1-pivaloylpiperidin-4-yloxy)benzamide] | > 6.00
33 | CC(C)(C)OC(=O)N1CCN(C(=O)c2ccc(OC3CCN(Cc4ccccc4)CC3)cc2)CC1 [5-99, tert-butyl 4-(4-(1-benzylpiperidin-4-yloxy)benzoyl)piperazine-1-carboxylate] | 5.00 to 6.00
34 | O=C(NC1CCN(Cc2ccccc2)CC1)c1ccc(OC2CCN(c3ccc(C(F)(F)F)cc3)CC2)cc1Cl [5-47, N-(1-benzylpiperidin-4-yl)-2-chloro-4-(1-(4-(trifluoromethyl)phenyl)piperidin-4-yloxy)benzamide] | > 6.00
